Laboratory results taken from patent US10251885B2, “Azole antifungal compositions” (ALLERGAN PHARMACEUTICALS INTERNATIONAL LIMITED, priority 2009, dated 2019).
In brackets after ≈: the same amount, converted by molar mass.

How the values were obtained:
E. flucossum [1] = assay: Microdilution assay, minimum inhibitory concentration (MIC); format: cell-based, Epidermophyton flucossum; conditions: n = 5 strains; for MIC50 / MIC90: Epidermophyton
Method: (§1) Multiple strains of Trichophyton rubrum, Trichophyton mentagrophytes and Epidermophyton flucossum were obtained from the culture collection facility at the Center for Medical Mycology (University Hospitals of Cleveland/Case Western Reserve University, Cleveland, Ohio). The minimum inhibitory concentration (MICs) for albaconazole, ciclopirox and terbinafine against each dermatophyte strain was determined according to the method approved by the CLSI Antifungal Subcommittee as a reference method for determining dermatophyte susceptibilities (Ghannoum et al., J. Clin. Microbiol. 42: 2977-2979, 2004). […] Microbiol. Infect. Dis. 45:203-206, 2003.
(§2) Tables 1 and 2 describe the minimum inhibitory concentrations (in ug/mL) and the minimum fungicidal concentrations (in ug/mL), respectively, for the active agents against the dermatophyte strains.

E. flucossum [2] = assay: Microdilution assay, minimum fungicidal concentration (MFC); format: cell-based, Epidermophyton flucossum; conditions: n = 5 strains
Method: as §1, §2

T. mentagrophytes [3] = assay: as above; format: cell-based, Trichophyton mentagrophytes; conditions: n = 5 strains
Method: as §1, §2

[4] = tested on: T. rubrum elevated terbinafine (MIC); assay: as above; format: cell-based, Trichophyton rubrum; conditions: n = 3 strains
Method: as §1, §2

T. rubrum [5] = assay: as above; format: cell-based, Trichophyton rubrum; conditions: n = 2 strains
Method: as §1, §2

All Dermatophytes [6] = assay: Microdilution assay, minimum inhibitory concentration (MIC); format: cell-based; conditions: for MIC50 / MIC90 / MIC Range: All Dermatophytes, n = 15 strains
Method: as §1, §2

[7] = tested on: T. rubrum elevated terbinafine (MIC); assay: as above; format: cell-based, Trichophyton rubrum; conditions: for MIC Range / MIC50 / MIC90: T. rubrum elevated terbinafine (MIC), n = 3 strains; for MIC50 / MIC90: Trichophyton rubrum
Method: as §1, §2

T. rubrum [8] = assay: as above; format: cell-based, Trichophyton rubrum; conditions: n = 2 strains; for MIC50 / MIC90: Trichophyton rubrum
Method: as §1, §2

T. mentagrophytes [9] = assay: as above; format: cell-based, Trichophyton mentagrophytes; conditions: n = 5 strains; for MIC50 / MIC90: Trichophyton mentagrophytes
Method: as §1, §2

All Dermatophytes [10] = assay: Microdilution assay, minimum fungicidal concentration (MFC); format: cell-based; conditions: for MFC50 / MFC90 / MFC Range: All Dermatophytes, n = 15 strains
Method: as §1, §2

Compound | MIC50 (E. flucossum [1]) | MIC90 (E. flucossum [1]) | MIC Range (E. flucossum [1]) | MFC50 (E. flucossum [2]) | MFC90 (E. flucossum [2]) | MFC50 (T. mentagrophytes [3]) | MFC90 (T. mentagrophytes [3]) | MFC50 [4] | MFC90 [4] | MFC50 (T. rubrum [5]) | MFC90 (T. rubrum [5]) | MFC Range (T. rubrum [5]) | MIC50 (All Dermatophytes [6]) | MIC90 (All Dermatophytes [6]) | MIC Range [7] | MIC50 [7] | MIC90 [7] | MIC50 (T. rubrum [8]) | MIC90 (T. rubrum [8]) | MIC Range (T. rubrum [8]) | other results
CN(C/C=C/C#CC(C)(C)C)Cc1cccc2ccccc12 [Terbinafine, terbinafine] | 0.002 µg/mL (≈ 0.00686 µM) | 0.008 µg/mL (≈ 0.0275 µM) | 0.002 to 0.008 µg/mL | 0.03 µg/mL (≈ 0.103 µM) | 0.03 µg/mL (≈ 0.103 µM) | 0.015 µg/mL (≈ 0.0515 µM) | 0.03 µg/mL (≈ 0.103 µM) | 32 µg/mL (≈ 110 µM) | >64 µg/mL | 0.008 µg/mL (≈ 0.0275 µM) | 0.008 µg/mL (≈ 0.0275 µM) | 0.008 µg/mL (≈ 0.0275 µM) | 0.002 µg/mL (≈ 0.00686 µM) | 8 µg/mL (≈ 27.5 µM) | 8 to 32 µg/mL | 8 µg/mL (≈ 27.5 µM) | 32 µg/mL (≈ 110 µM) | 0.002 µg/mL (≈ 0.00686 µM) | 0.002 µg/mL (≈ 0.00686 µM) | 0.002 µg/mL (≈ 0.00686 µM) | MFC Range (T. mentagrophytes [3]): 0.015 to 0.03 µg/mL; MIC Range (All Dermatophytes [6]): 0.002 to 32 µg/mL; MIC50 (T. mentagrophytes [9]): 0.002 µg/mL (≈ 0.00686 µM); MIC90 (T. mentagrophytes [9]): 0.004 µg/mL (≈ 0.0137 µM); MIC Range (T. mentagrophytes [9]): 0.002 to 0.004 µg/mL; MFC50 (All Dermatophytes [10]): 0.015 µg/mL (≈ 0.0515 µM); MFC90 (All Dermatophytes [10]): 32 µg/mL (≈ 110 µM); MFC Range (All Dermatophytes [10]): 0.008 µg/mL (≈ 0.0275 µM)
Cc1cc(C2CCCCC2)n(O)c(=O)c1 [Ciclopirox, ciclopirox] | 0.12 µg/mL (≈ 0.579 µM) | 0.12 µg/mL (≈ 0.579 µM) | 0.12 µg/mL (≈ 0.579 µM) | 4 µg/mL (≈ 19.3 µM) | >32 µg/mL | >32 µg/mL | >32 µg/mL | 16 µg/mL (≈ 77.2 µM) | >32 µg/mL | 16 µg/mL (≈ 77.2 µM) | 32 µg/mL (≈ 154 µM) | 16 to 32 µg/mL | 0.12 µg/mL (≈ 0.579 µM) | 0.25 µg/mL (≈ 1.21 µM) | 0.12 µg/mL (≈ 0.579 µM) | 0.12 µg/mL (≈ 0.579 µM) | 0.12 µg/mL (≈ 0.579 µM) | 0.12 µg/mL (≈ 0.579 µM) | 0.12 µg/mL (≈ 0.579 µM) | 0.12 µg/mL (≈ 0.579 µM) | MIC50 (T. mentagrophytes [9]): 0.25 µg/mL (≈ 1.21 µM); MIC90 (T. mentagrophytes [9]): 0.25 µg/mL (≈ 1.21 µM); MIC Range (T. mentagrophytes [9]): 0.12 to 0.25 µg/mL; MFC50 (All Dermatophytes [10]): 16 µg/mL (≈ 77.2 µM); MFC90 (All Dermatophytes [10]): >32 µg/mL
C[C@@H](n1cnc2cc(Cl)ccc2c1=O)[C@](O)(Cn1cncn1)c1ccc(F)cc1F [Albaconazole, (1R,2R)-7-chloro-3-[2-(2,4-difluorophenyl)-2-hydroxy-1-methyl-3-(1H-1,2,4-triazol-1yl)propyl]quinazolin-4(3H)-one] | 0.015 µg/mL (≈ 0.0347 µM) | 0.015 µg/mL (≈ 0.0347 µM) | 0.008 to 0.015 µg/mL | 0.25 µg/mL (≈ 0.579 µM) | 8 µg/mL (≈ 18.5 µM) | 1 µg/mL (≈ 2.32 µM) | 8 µg/mL (≈ 18.5 µM) | 0.25 µg/mL (≈ 0.579 µM) | 1 µg/mL (≈ 2.32 µM) | 0.5 µg/mL (≈ 1.16 µM) | 8 µg/mL (≈ 18.5 µM) | 0.5 to 8 µg/mL | 0.06 µg/mL (≈ 0.139 µM) | 0.25 µg/mL (≈ 0.579 µM) | 0.015 to 0.25 µg/mL | 0.06 µg/mL (≈ 0.139 µM) | 0.25 µg/mL (≈ 0.579 µM) | 0.06 µg/mL (≈ 0.139 µM) | 0.06 µg/mL (≈ 0.139 µM) | 0.06 µg/mL (≈ 0.139 µM) | MFC Range (E. flucossum [2]): 0.06 to 8 µg/mL; MFC Range (T. mentagrophytes [3]): 0.5 to 8 µg/mL; MFC Range [4]: 0.06 to 1 µg/mL; MIC Range (All Dermatophytes [6]): 0.008 to 0.5 µg/mL; MICs overall, compared with ciclopirox and terbinafine (All Dermatophytes [6]; overall, in words): lower than those for ciclopirox and similar to those for terbinafine; effectiveness against terbinafine-resistant Trichophyton rubrum strains ([7]; compared with terbinafine, in words): more effective; MIC50 (T. mentagrophytes [9]): 0.12 µg/mL (≈ 0.278 µM); MIC90 (T. mentagrophytes [9]): 0.5 µg/mL (≈ 1.16 µM); MIC Range (T. mentagrophytes [9]): 0.12 to 0.5 µg/mL; MFC50 (All Dermatophytes [10]): 0.5 µg/mL (≈ 1.16 µM); MFC90 (All Dermatophytes [10]): 8 µg/mL (≈ 18.5 µM); MFC Range (All Dermatophytes [10]): 0.06 to 8 µg/mL; MFCs overall, compared with ciclopirox and terbinafine (All Dermatophytes [10]; overall, in words): lower than those for ciclopirox and similar to those for terbinafine
